Assay results from US11090326B2, “Fixed-dose pharmaceutical composition comprising rifabutin, clarithromycin, and clofazimine” (RedHill Biopharma Ltd., priority 2008, dated 2021).
Like-named read-outs stand apart in the source and are kept apart here.

Tests used:
clinical = conditions: human, in vivo, 90 mg
Excerpt: Gatti et al. (1998) conducted a comparative study of rifabutin absorption and disposition in HIV-infected patients with or without wasting syndrome.

[1] = Bioavailability study: single-dose plasma pharmacokinetics of 2 test formulations of triple combination capsules
Excerpt: The objectives of this study were to 1) determine and compare the rate and extent of absorption and 2) to assess the safety and tolerability of 2 test formulations of a combination product of clarithromycin, rifabutin and clofazimine (herein after “triple combination”).
This study followed a randomized, open-label, single-dose, 1-way 2-arm parallel design in 24 normal, healthy, non-smoking male and female subjects.
Subjects were admitted to the clinic the day before dosing, and remained until the 24.00 hour post-dose blood draw, at which time they were allowed to leave the clinic and after which they were required to return for subsequent blood draws.
Following an overnight fast of at least 10 hours, subjects began a high fat content meal 30 minutes prior to drug administration. Subjects consumed this meal in 30 minutes or less; however, the study drug was administered 30 minutes after the start of the meal. The FDA standard high-fat content breakfast consisted of the following: 2 eggs fried in butter, 2 strips of bacon, 2 slices of toast with butter, 4 ounces of hash brown potatoes and 8 fluid ounces (about.240 mL) of whole milk.
Following an overnight fast of at least 10 hours, and 30 minutes after the start of a high fat content meal, subjects received one of the following treatments at 0.00 hour on Day 1 of the study period according to a randomization scheme:
The medications were administered orally. The drugs were given 1 or more capsules at a time. All capsules were ingested within 1 minute.
During the study period, 19 blood samples (1×4 mL and 1×6 mL tube for each sampling time point) were collected from each subject by direct venipuncture or by Vasofix® intravenous catheter using pre-cooled, labelled blood collection tubes containing potassium ethylenediaminetetraacetic acid (EDTA) as the anticoagulant. Blood samples were collected at 0.00 (pre-dose), 0.25, 0.50, 0.75, 1.00, 1.50, 2.00, 2.50, 3.00, 4.00, 6.00, 8.00, 10.00, 12.00, 16.00, 24.00, 48.00, 60.00, and 96.00 hours post-dose. The clock times of all blood draws for plasma concentration analyses were recorded.
The 6 mL tubes were used to measure clarithromycin and 14-hydroxyclarithromycin. The 4 mL tubes were used to measure rifabutin, 25-O-desacetylrifabutin and clofazimine.
(§1) The blood samples were stored in an ice bath before centrifugation and were centrifuged as soon as possible under refrigerated conditions (at 4° C.) at 3500 rpm for 7 minutes. The collected plasma from each blood collection tube was aliquotted into pre-cooled labelled polypropylene tubes. A minimum of 1.5 mL of plasma was transferred from the 6 mL tubes into the first polypropylene tube, and all remaining plasma, if any, was transferred into a second polypropylene tube. The samples were kept in an ice bath, and flash frozen in an upright position, then stored at −70±10° C. until assayed.
as §1, with “In another procedure, the blood” for “The blood”, “of 0.8” for “of 1.5”, “the 4 mL,” for “the 6 mL”
Upon completion of the clinical portion of the study, all samples were analysed for clarithromycin and 14-hydroxyclarithromycin in the plasma samples or for rifabutin, 25-O-desacetylrifabutin and clofazimine in the plasma samples.
Clarithromycin and 14-hydroxyclarithromycin—Information about these analytes was obtained using routine methods known in the art.

[2] = single 300 mg dose of rifabutin, fasting; 10 HIV patients without wasting syndrome (Gatti et al., 1998); cited from earlier work
[3] = single dose of 250 mg of clarithromycin; cited from earlier work
[4] = Literature Cmax of clarithromycin (Chu et al., 1993); conditions: in vivo; clarithromycin 190 mg dose; read-out: Cmax, literature value scaled to dose of the study
Protocol: The results obtained from dry and PEG formulations of triple combination capsules were approximately proportional to literature findings. Chu et al. (1993) reported that the rise of clarithromycin peak concentrations occur non-linearly to dose which might explain any slight disproportionality between the literature values and those obtained from triple combination capsules dry and PEG formulations.
Clarithromycin—500 mg (four 125-mg capsules, Abbott Laboratories) every 12 hours for 5 doses.

[5] = Literature Cmax of clofazimine (Nix et al., 2004); conditions: in vivo; clofazimine 20 mg dose; read-out: Cmax, literature value scaled to dose of the study
[6] = clofazimine 200 mg dose, fed (Nix et al., 2004); cited from earlier work
[7] = rifabutin, geometric mean ratio dry/PEG formulation of triple combination capsules
[8] = clarithromycin, geometric mean ratio dry/PEG formulation of triple combination capsules
[9] = clofazimine, geometric mean ratio dry/PEG formulation of triple combination capsules
[10] = 25-O-desacetylrifabutin, geometric mean ratio dry/PEG formulation of triple combination capsules

CO[C@H]1/C=C/O[C@@]2(C)Oc3c(C)c(O)c4c(c3C2=O)C2=NC3(CCN(CC(C)C)CC3)NC2=C(NC(=O)/C(C)=C\C=C\[C@H](C)[C@H](O)[C@@H](C)[C@@H](O)[C@@H](C)[C@H](OC(C)=O)[C@@H]1C)C4=O [RIFABUTIN, rifabutin]
Cmax (clinical): 102 ng/mL
Relative bioavailability, Ratio of Means, AUC0-inf [1, 7]: 73.23%
Relative bioavailability, Ratio of Means, AUC0-t [1, 7]: 77.00%
Relative bioavailability, Ratio of Means, Cmax [1, 7]: 88.74%
Cmax (peak concentration) [2]: 340 ± 140 ng/mL

CC[C@H]1OC(=O)[C@H](C)[C@@H](O[C@H]2C[C@@](C)(OC)[C@@H](O)[C@H](C)O2)[C@H](C)[C@@H](O[C@@H]2O[C@H](C)C[C@H](N(C)C)[C@H]2O)[C@](C)(OC)C[C@@H](C)C(=O)[C@H](C)[C@@H](O)[C@]1(C)O [CLARITHROMYCIN, clarithromycin]
Cmax [3]: 780 ± 250 ng/mL
Cmax [4]: 593 ng/mL
Relative bioavailability, Ratio of Means, AUC0-inf [1, 8]: 80.78%
Relative bioavailability, Ratio of Means, AUC0-t [1, 8]: 80.34%
Relative bioavailability, Ratio of Means, Cmax [1, 8]: 75.03%

CC(C)/N=c1\cc2n(-c3ccc(Cl)cc3)c3ccccc3nc-2cc1Nc1ccc(Cl)cc1 [CLOFAZIMINE, clofazimine]
Relative bioavailability, Ratio of Means, AUC0-t [1, 9]: 102.38%
Relative bioavailability, Ratio of Means, Cmax [1, 9]: 118.63%
Relative bioavailability, Ratio of Means, AUC0-t ([1]; clofazimine, geometric mean ratio dry/PEG formulation of triple combination capsules, listed as clofazimine): 102%
Relative bioavailability, Ratio of Means, AUC0-inf ([1]; clofazimine, geometric mean ratio dry/PEG formulation, approximately 50% (A) and 75% (B) of subjects excluded): 120.52%
Cmax [5]: 23 ng/mL
Cmax [6]: 227 ng/mL

25-O-desacetylrifabutin [25-0-DESACETYLRIFABUTIN]
Relative bioavailability, Ratio of Means, AUC0-t [1, 10]: 73.95%
Relative bioavailability, Ratio of Means, Cmax [1, 10]: 73.43%
Relative bioavailability, Ratio of Means, AUC0-inf ([1]; 25-O-desacetylrifabutin, geometric mean ratio dry/PEG formulation, approximately 65% of subjects excluded): 86.06%
